# Patent US9273057B2 (Bristol-Myers Squibb Company, priority 2012, dated 2016)
# Molecular target: CK2A1 (CK2α/β) (Homo sapiens, UniProt P68400)
# Test: CK2 kinase assay, CK2A1 (CK2α/β)
# Format: biochemical
# Conditions: Table A; read-out: CK2A1 (CK2α/β) (IC50)
# Chain of CK2A1 (CK2α/β) (P68400 whole entry, species assumed): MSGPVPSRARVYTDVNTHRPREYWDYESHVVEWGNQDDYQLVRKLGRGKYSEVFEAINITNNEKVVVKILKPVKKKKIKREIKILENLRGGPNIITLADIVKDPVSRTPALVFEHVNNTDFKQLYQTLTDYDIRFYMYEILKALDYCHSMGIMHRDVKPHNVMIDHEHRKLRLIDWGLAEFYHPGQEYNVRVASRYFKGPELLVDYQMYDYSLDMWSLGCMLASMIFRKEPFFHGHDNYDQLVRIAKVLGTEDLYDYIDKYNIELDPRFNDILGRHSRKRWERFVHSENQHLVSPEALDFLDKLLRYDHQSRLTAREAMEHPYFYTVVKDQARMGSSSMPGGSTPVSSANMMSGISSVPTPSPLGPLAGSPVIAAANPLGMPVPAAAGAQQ
# Chain of CK2A1 (CK2α/β) (P67870 whole entry partner, species assumed): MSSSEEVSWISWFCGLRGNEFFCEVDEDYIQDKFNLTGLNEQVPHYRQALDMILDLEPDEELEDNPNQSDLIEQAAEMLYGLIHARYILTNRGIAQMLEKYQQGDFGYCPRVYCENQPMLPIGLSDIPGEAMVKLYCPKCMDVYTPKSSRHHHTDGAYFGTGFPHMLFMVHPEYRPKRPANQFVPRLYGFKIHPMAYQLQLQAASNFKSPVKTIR
compound,measurement,value
"N#Cc1cc(Nc2nc(NC3CC3)c3ncc(C#N)n3n2)c(Cl)c(C2(O)COC2)c1 [Example 653, 2-((2-chloro-5-cyano-3-(3-hydroxyoxetan-3-yl)phenyl)amino)-4-(cyclopropylamino)imidazo[2,1-f][1,2,4]triazine-7-carbonitrile]",IC50,1.84 nM
"COC(=O)N[C@H]1CCN(c2cc(C#N)cc(Nc3nc(NC4CC4)c4ncc(C#N)n4n3)c2Cl)C[C@H]1NC1(C)COC1 [Example 754, methyl N-[(3R,4S)-1-(2-chloro-5-cyano-3-{[7-cyano-4-(cyclopropylamino)imidazo [2,1-f][1,2,4]triazin-2-yl]amino}phenyl)-3-[(3-methyloxetan-3-yl)amino]piperidin-4-yl]carbamate]",IC50,2.93 nM
"N#Cc1cnc2c(NC3CC3)nc(Nc3cc(C(F)F)cc(NCC(O)CO)c3Cl)nn12 (centres unmarked) [Example 254, 2-((2-chloro-5-(difluoromethyl)-3-((2,3-dihydroxypropyl)amino)phenyl)amino)-4-(cyclopropylamino)imidazo[2,1-f][1,2,4]triazine-7-carbonitrile]",IC50,0.68 nM
"CC(CCc1cc(Cl)c(Nc2nc(NC3CC3)c3ncc(C#N)n3n2)cc1C#N)N1CC(O)C1 (centres unmarked) [Example 724, 2-({2-chloro-5-cyano-4-[3-(3-hydroxyazetidin-1-yl)butyl]phenyl}amino)-4-(cyclopropylamino)imidazo [2,1-f][1,2,4]triazine-7-carbonitrile]",IC50,1.51 nM
"N#Cc1cc(CN2CCOCC2)c(Cl)c(Nc2nc(NC3CC3)c3ncc(C#N)n3n2)c1 [Example 404, 2-((2-chloro-5-cyano-3-(morpholinomethyl)phenyl)amino)-4-(cyclopropylamino)imidazo[2,1-f][1,2,4]triazine-7-carbonitrile]",IC50,0.54 nM
"N#Cc1cc(Nc2nc(NC3CC3)c3ncc(C#N)n3n2)c(Cl)c(C2(O)CCN(C3COC3)C2)c1 (centres unmarked) [Example 652, 2-((2-chloro-5-cyano-3-(3-hydroxy-1-(oxetan-3-yl)pyrrolidin-3-yl)phenyl)amino)-4-(cyclopropylamino)imidazo[2,1-f][1,2,4]triazine-7-carbonitrile]",IC50,0.83 nM
"N#Cc1cc(Nc2nc(NC3CC3)c3ncc(C#N)n3n2)c(Cl)c(C(F)(F)CO)c1 [Example 737, 2-((2-chloro-5-cyano-3-(1,1-difluoro-2-hydroxyethyl)phenyl)amino)-4-(cyclopropylamino)imidazo[2,1-f][1,2,4]triazine-7-carbonitrile]",IC50,0.38 nM
"COC(C)CN1CCN(c2cc(C#N)cc(Nc3nc(NC4CC4)c4ncc(C#N)n4n3)c2Cl)CC1 (centres unmarked) [Example 596, 2-({2-chloro-5-cyano-3-[4-(2-methoxypropyl)piperazin-1-yl]phenyl}amino)-4-(cyclopropylamino)imidazo [2,1-f][1,2,4]triazine-7-carbonitrile]",IC50,0.6 nM
"CCNc1nc(Nc2cc(C#N)cc(N3CCC4(CCN(C)C4=O)CC3)c2Cl)nn2c(C#N)cnc12 (racemic) [Example 784, (+/−)-2-((2-chloro-5-cyano-3-(2-methyl-1-oxo-2,8-diazaspiro[4.5]decan-8-yl)phenyl)amino)-4-(ethylamino)imidazo[2,1-f][1,2,4]triazine-7-carbonitrile]",IC50,1.88 nM
"N#Cc1cc(Nc2nc(NC3CC3)c3ncc(C#N)n3n2)c(Cl)c(N2CCN(C3CN(C(=O)C4CNCCO4)C3)CC2)c1 (centres unmarked) [Example 489, 2-[(2-chloro-5-cyano-3-{4-[1-(morpholine-2-carbonyl)azetidin-3-yl]piperazin-1-yl}phenyl)amino]-4-(cyclopropylamino)imidazo[2,1-f][1,2,4]triazine-7-carbonitrile]",IC50,1.4 nM
"N#Cc1cc(Nc2nc(NC3CC3)c3ncc(C#N)n3n2)c(Cl)c(N2CCN(CC3CNCCO3)CC2)c1 (centres unmarked) [Example 597, 2-({2-chloro-5-cyano-3-[4-(morpholin-2-ylmethyl)piperazin-1-yl]phenyl}amino)-4-(cyclopropylamino)imidazo [2,1-f][1,2,4]triazine-7-carbonitrile]",IC50,0.62 nM
"N#Cc1cc(Nc2nc(NC3CC3)c3ncc(C#N)n3n2)c(Cl)c(C2CCN(C3CN(CC4CC4)C3)CC2)c1 [Example 323, 2-((2-chloro-5-cyano-3-(1-(1-(cyclopropylmethyl)-3-azetidinyl)-4-piperidinyl)phenyl)amino)-4-(cyclopropylamino)imidazo [2,1-f][1,2,4]triazine-7-carbonitrile]",IC50,0.59 nM
"N#Cc1cc(Nc2nc(NC3CC3)c3ncc(C#N)n3n2)c(Cl)c(N2CC[C@@H](NC(=O)OC3CN(C4COC4)C3)[C@H](O)C2)c1 (racemic) [Example 180, (+/−)-1-(oxetan-3-yl)azetidin-3-yl((3R,4R)-1-(2-chloro-5-cyano-3-((7-cyano-4-(cyclopropylamino)imidazo[2,1-f][1,2,4]triazin-2-yl)amino)phenyl)-3-hydroxypiperidin-4-yl)carbamate]",IC50,0.51 nM
"CN1CCCC12CCN(c1cc(C#N)cc(Nc3nc(NC4CC4)c4ncc(C#N)n4n3)c1Cl)C2 (racemic) [Example 25, (+/−) 2-((2-chloro-5-cyano-3-(1-methyl-1,7-diazaspiro[4.4]non-7-yl)phenyl)amino)-4-(cyclopropylamino)imidazo [2,1-f][1,2,4]triazine-7-carbonitrile]",IC50,0.49 nM
"CCNC(=O)N[C@H]1CN(c2cc(C#N)cc(Nc3nc(NC4CC4)c4ncc(C#N)n4n3)c2Cl)C[C@H]1OC (racemic) [Example 32, (+/−) 1-((3S,4R)-1-(2-chloro-5-cyano-3-((7-cyano-4-(cyclopropylamino)imidazo [2,1-f][1,2,4]triazin-2-yl)amino)phenyl)-4-methoxy-3-pyrrolidinyl)-3-ethylurea]",IC50,0.8 nM
"COC(=O)N[C@H]1CCN(c2cc(C#N)cc(Nc3nc(NC4CC4)c4ncc(C#N)n4n3)c2Cl)C[C@@H]1NC1COC1 (single isomer, unassigned) [Example 744]",IC50,1.12 nM
"N#Cc1cc(Nc2nc(NC3CC3)c3ncc(C#N)n3n2)c(Cl)c(N2CCC(N[C@@H]3CCCC[C@@H]3F)CC2)c1 (racemic) [Example 127, (+/−) 2-(2-chloro-5-cyano-3-(4-((1R,2R)-2-fluorocyclohexylamino)piperidin-1-yl)phenylamino)-4-(cyclopropylamino)imidazo [1,2-f][1,2,4]triazine-7-carbonitrile]",IC50,0.62 nM
"N#Cc1cc(Nc2nc(NC3CC3)c3ncc(C#N)n3n2)c(Cl)c(N2CCN(C(=O)C3CC3)CC2)c1 [Example 74, 2-((2-chloro-5-cyano-3-(4-(cyclopropylcarbonyl)-1-piperazinyl)phenyl)amino)-4-(cyclopropylamino) imidazo[2,1-f][1,2,4] triazine-7-carbonitrile]",IC50,0.55 nM
"CN1CCN(C(=O)N[C@@H]2CCN(c3cc(C#N)cc(Nc4nc(NC5CC5)c5ncc(C#N)n5n4)c3Cl)C[C@H]2O)CC1 (racemic) [Example 182, (+/−)-N-((3R,4R)-1-(2-chloro-5-cyano-3-((7-cyano-4-(cyclopropylamino)imidazo[2,1-f][1,2,4]triazin-2-yl)amino)phenyl)-3-hydroxypiperidin-4-yl)-4-methylpiperazine-1-carboxamide]",IC50,0.66 nM
"CCNC(=O)OCC1CN(c2cc(C#N)cc(Nc3nc(NC4CC4)c4ncc(C#N)n4n3)c2Cl)CCN1C (centres unmarked) [Example 703, [4-(2-chloro-5-cyano-3-{[7-cyano-4-(cyclopropylamino)imidazo[2,1-f][1,2,4]triazin-2-yl]amino}phenyl)-1-methylpiperazin-2-yl]methyl N-ethylcarbamate]",IC50,1.82 nM
"CO[C@@H]1CN(c2cc(C#N)cc(Nc3nc(NC4CC4)c4ncc(C#N)n4n3)c2Cl)CC[C@H]1N (racemic) [Example 188, (+/−)-2-((3-((3R,4R)-4-amino-3-methoxypiperidin-1-yl)-2-chloro-5-cyanophenyl)amino)-4-(cyclopropylamino)imidazo[2,1-f][1,2,4]triazine-7-carbonitrile]",IC50,200 nM
"CCNc1nc(Nc2cc(C#N)cc(N3CCC(NC)C3)c2Cl)nn2c(C#N)cnc12 (racemic) [Example 362, (+/−) 2-((2-chloro-5-cyano-3-(3-(methylamino)-1-pyrrolidinyl)phenyl)amino)-4-(ethylamino)imidazo[2,1-f][1,2,4]triazine-7-carbonitrile]",IC50,0.84 nM
"CN1CCC(N2CC(c3cc(C#N)cc(Nc4nc(NC5CC5)c5ncc(C#N)n5n4)c3Cl)C2)CC1 [Example 357, 2-((2-chloro-5-cyano-3-(1-(1-methylpiperidin-4-yl)azetidin-3-yl)phenyl)amino)-4-(cyclopropylamino)imidazo[2,1-f][1,2,4]triazine-7-carbonitrile]",IC50,1.68 nM
"CN1CCC2(CC1)CN(c1cc(C#N)cc(Nc3nc(NC4CC4)c4ncc(C#N)n4n3)c1Cl)C2 [Example 22, 2-((2-chloro-5-cyano-3-(7-methyl-2,7-diazaspiro[3.5]non-2-yl)phenyl)amino)-4-(cyclopropylamino)imidazo [2,1-f][1,2,4]triazine-7-carbonitrile]",IC50,0.68 nM
"N#Cc1cc(Nc2nc(NC3CC3)c3ncc(C#N)n3n2)c(Cl)c(C2CCN(C3CNC3)CC2)c1 [Example 318, 2-((3-(1-(azetidin-3-yl)piperidin-4-yl)-2-chloro-5-cyanophenyl)amino)-4-(cyclopropylamino)imidazo[2,1-f][1,2,4]triazine-7-carbonitrile]",IC50,0.78 nM
"CNC1CCN(c2cc(C#N)cc(Nc3nc(NC4CC4)c4ncc(C#N)n4n3)c2Cl)C1 (racemic) [Example 28, (+/−) 2-((2-chloro-5-cyano-3-(3-(methylamino)-1-pyrrolidinyl)phenyl)amino)-4-(cyclopropylamino)imidazo [2,1-f][1,2,4]triazine-7-carbonitrile]",IC50,0.57 nM
"N#Cc1cc(Nc2nc(NC3CC3)c3ncc(C#N)n3n2)c(Cl)c(N2CC[C@@H](N3CCOCC3)[C@H](O)C2)c1 (racemic) [Example 306, (+/−)-2-((2-chloro-5-cyano-3-((3R,4R)-3-hydroxy-4-morpholinopiperidin-1-yl)phenyl)amino)-4-(cyclopropylamino)imidazo[2,1-f][1,2,4]triazine-7-carbonitrile]",IC50,1.29 nM
COC1CCN(C2CN(c3cc(C#N)cc(Nc4nc(NC5CC5)c5ncc(C#N)n5n4)c3Cl)C2)CC1 [Example 164],IC50,0.57 nM
"N#Cc1cc(Nc2nc(NC3CC3)c3ncc(C#N)n3n2)c(Cl)c([C@H]2CCC[C@@H](N3CC(F)C3)C2)c1 (single isomer, unassigned) [Example 729]",IC50,1.68 nM
